Legend:
Type in all cases: biochemical
Conditions in all cases: 1 µM inhibitor, mean
PAK2 = PAK2 (Homo sapiens, UniProt Q13177); assay: Selectivity screen PAK2
Method: (§1) For the in vitro kinase assay, JAK3 (5–20 mU diluted in 50 mM Tris pH 7.5, 0.1 mM EGTA, 0.05% β-mercaptoethanol, 1 mg/ml BSA) was assayed against PDKtide ([…]) in a final volume of 25.5 µl containing 50 mM Tris pH 7.5, 0.1 mM EGTA, 0.05% β-mercaptoethanol, 100 µM substrate peptide, 10 mM magnesium acetate and 0.02 mM [33P-γ-ATP] (50–1000 cpm/pmole) and incubated for 30 min at room temperature. Assays were started by the addition of the ATP and stopped by addition of 5 µl of 0.5 M (3%) orthophosphoric acid and then harvested onto P81 Unifilter plates with a wash buffer of 50 mM orthophosphoric acid. To determine the Km for ATP, assays were run using 1, 5, 10, 20, 50, 100, 200, 400, 500 μM ATP and Km derived by non-linear regression fitting to the Michaelis–Menten equation v = Vmax[S]/(Km + [S]). IC50 values for inhibitors via non-linear regression using a parameter model: Y = Bottom + (Top–Bottom)/(1 + (IC50/X)^HillSlope). Non-linear regression was carried out in Prism (version 8). In vitro selectivity screen was carried out as described previously.

IGF-1R = IGF-1R (Homo sapiens, UniProt P08069); assay: Selectivity screen IGF-1R
Method: as §1

MST4 = MST4 (Homo sapiens, UniProt Q9P289); assay: Selectivity screen MST4
Method: as §1

PRK2 = PRK2 (Homo sapiens, UniProt Q16513); assay: Selectivity screen PRK2
Method: as §1

PKCz = PKCz (Homo sapiens, UniProt Q05513); assay: Selectivity screen PKCz
Method: as §1

CLK2 = CLK2 (Homo sapiens, UniProt P49760); assay: Selectivity screen CLK2
Method: as §1

DDR2 = DDR2 (Homo sapiens, UniProt Q16832); assay: Selectivity screen DDR2
Method: as §1

MINK1 = MINK1 (Homo sapiens, UniProt Q8N4C8); assay: Selectivity screen MINK1
Method: as §1

DAPK1 = DAPK1 (Homo sapiens, UniProt P53355); assay: Selectivity screen DAPK1
Method: as §1

CAMKKb = CAMKKb (Homo sapiens, UniProt Q96RR4); assay: Selectivity screen CAMKKb
MKK1 = MKK1 (Homo sapiens, UniProt Q02750); assay: Selectivity screen MKK1
Method: as §1

FGF-R1 = FGF-R1 (Homo sapiens, UniProt P11362); assay: Selectivity screen FGF-R1
Method: as §1

JNK3 = JNK3 (Homo sapiens, UniProt P53779); assay: Selectivity screen JNK3
Method: as §1

EPH-A4 = EPH-A4 (Homo sapiens, UniProt P54764); assay: Selectivity screen EPH-A4
Method: as §1

YES1 = YES1 (Homo sapiens, UniProt P07947); assay: Selectivity screen YES1
Method: as §1

PKA = PKA (Homo sapiens, UniProt P17612); assay: Selectivity screen PKA
Method: as §1

MARK1 = MARK1 (Homo sapiens, UniProt Q9P0L2); assay: Selectivity screen MARK1
Method: as §1

Aurora A = Aurora A (Homo sapiens, UniProt O14965); assay: Selectivity screen Aurora A
IKKe = IKKe (Homo sapiens, UniProt Q14164); assay: Selectivity screen IKKe
Method: as §1

TTK = TTK (Homo sapiens, UniProt P33981); assay: Selectivity screen TTK
Method: as §1

Src = Src (Homo sapiens, UniProt P12931); assay: Selectivity screen Src
Method: as §1

HIPK1 = HIPK1 (Homo sapiens, UniProt Q86Z02); assay: Selectivity screen HIPK1
Method: as §1

ERK2 = ERK2 (Homo sapiens, UniProt P28482); assay: Selectivity screen ERK2
Method: as §1

HIPK2 = HIPK2 (Homo sapiens, UniProt Q9H2X6); assay: Selectivity screen HIPK2
Method: as §1

MKK2 = MKK2 (Homo sapiens, UniProt P36507); assay: Selectivity screen MKK2
Method: as §1

CAMK1 = CAMK1 (Homo sapiens, UniProt Q14012); assay: Selectivity screen CAMK1
Method: as §1

ERK5 = ERK5 (Homo sapiens, UniProt Q13164); assay: Selectivity screen ERK5
Method: as §1

BRSK1 = BRSK1 (Homo sapiens, UniProt Q8TDC3); assay: Selectivity screen BRSK1
SYK = SYK (Homo sapiens, UniProt P43405); assay: Selectivity screen SYK
Method: as §1

TGFBR1 = TGFBR1 (Homo sapiens, UniProt P36897); assay: Selectivity screen TGFBR1
Method: as §1

Chain of YES1 (P07947 whole entry): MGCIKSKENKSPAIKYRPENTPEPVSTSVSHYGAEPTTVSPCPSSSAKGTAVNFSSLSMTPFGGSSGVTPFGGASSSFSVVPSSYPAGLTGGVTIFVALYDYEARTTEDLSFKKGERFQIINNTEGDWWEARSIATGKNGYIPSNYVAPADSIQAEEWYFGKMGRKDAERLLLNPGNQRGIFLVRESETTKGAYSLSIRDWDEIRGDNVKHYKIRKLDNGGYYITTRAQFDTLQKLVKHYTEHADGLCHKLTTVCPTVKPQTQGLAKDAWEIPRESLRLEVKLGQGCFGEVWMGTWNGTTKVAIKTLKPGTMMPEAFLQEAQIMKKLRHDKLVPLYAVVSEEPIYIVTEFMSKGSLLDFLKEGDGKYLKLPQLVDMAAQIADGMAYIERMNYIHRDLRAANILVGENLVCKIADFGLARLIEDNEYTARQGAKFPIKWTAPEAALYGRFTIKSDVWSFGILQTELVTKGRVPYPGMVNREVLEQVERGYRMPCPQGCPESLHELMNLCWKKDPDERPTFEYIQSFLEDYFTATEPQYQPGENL
Chain of CAMK1 (Q14012 whole entry): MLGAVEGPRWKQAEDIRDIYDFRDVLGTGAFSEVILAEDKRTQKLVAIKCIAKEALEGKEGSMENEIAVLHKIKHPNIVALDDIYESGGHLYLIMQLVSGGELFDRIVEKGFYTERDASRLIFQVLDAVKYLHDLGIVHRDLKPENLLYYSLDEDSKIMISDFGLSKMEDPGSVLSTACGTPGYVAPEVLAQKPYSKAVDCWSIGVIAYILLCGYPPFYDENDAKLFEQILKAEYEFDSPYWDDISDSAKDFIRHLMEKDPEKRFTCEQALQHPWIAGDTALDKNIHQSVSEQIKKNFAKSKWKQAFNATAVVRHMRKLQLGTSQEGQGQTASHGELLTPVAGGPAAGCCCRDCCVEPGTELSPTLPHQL
Chain of DDR2 (Q16832 22-855): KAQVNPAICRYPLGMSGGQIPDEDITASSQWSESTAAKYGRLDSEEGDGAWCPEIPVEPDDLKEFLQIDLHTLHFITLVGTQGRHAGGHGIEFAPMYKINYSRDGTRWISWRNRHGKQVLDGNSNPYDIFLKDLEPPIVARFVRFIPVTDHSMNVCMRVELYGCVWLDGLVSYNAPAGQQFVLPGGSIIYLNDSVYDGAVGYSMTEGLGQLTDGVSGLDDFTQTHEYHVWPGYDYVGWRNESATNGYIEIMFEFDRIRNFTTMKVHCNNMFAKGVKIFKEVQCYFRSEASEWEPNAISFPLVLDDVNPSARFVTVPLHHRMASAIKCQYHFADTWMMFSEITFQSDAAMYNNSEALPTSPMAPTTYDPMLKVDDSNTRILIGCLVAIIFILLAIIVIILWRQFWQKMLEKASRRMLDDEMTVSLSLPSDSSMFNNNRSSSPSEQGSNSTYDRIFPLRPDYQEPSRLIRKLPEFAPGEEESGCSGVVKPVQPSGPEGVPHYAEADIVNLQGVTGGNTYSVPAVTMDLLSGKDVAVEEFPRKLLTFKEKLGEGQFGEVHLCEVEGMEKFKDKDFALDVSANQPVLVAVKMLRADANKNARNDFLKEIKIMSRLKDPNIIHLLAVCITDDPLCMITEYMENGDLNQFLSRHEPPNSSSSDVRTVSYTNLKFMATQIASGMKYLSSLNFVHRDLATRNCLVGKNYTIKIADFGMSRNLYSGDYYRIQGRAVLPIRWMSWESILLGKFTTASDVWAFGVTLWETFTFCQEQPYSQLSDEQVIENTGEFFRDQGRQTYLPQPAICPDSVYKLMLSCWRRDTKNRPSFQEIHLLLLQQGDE
Chain of MINK1 (Q8N4C8 whole entry): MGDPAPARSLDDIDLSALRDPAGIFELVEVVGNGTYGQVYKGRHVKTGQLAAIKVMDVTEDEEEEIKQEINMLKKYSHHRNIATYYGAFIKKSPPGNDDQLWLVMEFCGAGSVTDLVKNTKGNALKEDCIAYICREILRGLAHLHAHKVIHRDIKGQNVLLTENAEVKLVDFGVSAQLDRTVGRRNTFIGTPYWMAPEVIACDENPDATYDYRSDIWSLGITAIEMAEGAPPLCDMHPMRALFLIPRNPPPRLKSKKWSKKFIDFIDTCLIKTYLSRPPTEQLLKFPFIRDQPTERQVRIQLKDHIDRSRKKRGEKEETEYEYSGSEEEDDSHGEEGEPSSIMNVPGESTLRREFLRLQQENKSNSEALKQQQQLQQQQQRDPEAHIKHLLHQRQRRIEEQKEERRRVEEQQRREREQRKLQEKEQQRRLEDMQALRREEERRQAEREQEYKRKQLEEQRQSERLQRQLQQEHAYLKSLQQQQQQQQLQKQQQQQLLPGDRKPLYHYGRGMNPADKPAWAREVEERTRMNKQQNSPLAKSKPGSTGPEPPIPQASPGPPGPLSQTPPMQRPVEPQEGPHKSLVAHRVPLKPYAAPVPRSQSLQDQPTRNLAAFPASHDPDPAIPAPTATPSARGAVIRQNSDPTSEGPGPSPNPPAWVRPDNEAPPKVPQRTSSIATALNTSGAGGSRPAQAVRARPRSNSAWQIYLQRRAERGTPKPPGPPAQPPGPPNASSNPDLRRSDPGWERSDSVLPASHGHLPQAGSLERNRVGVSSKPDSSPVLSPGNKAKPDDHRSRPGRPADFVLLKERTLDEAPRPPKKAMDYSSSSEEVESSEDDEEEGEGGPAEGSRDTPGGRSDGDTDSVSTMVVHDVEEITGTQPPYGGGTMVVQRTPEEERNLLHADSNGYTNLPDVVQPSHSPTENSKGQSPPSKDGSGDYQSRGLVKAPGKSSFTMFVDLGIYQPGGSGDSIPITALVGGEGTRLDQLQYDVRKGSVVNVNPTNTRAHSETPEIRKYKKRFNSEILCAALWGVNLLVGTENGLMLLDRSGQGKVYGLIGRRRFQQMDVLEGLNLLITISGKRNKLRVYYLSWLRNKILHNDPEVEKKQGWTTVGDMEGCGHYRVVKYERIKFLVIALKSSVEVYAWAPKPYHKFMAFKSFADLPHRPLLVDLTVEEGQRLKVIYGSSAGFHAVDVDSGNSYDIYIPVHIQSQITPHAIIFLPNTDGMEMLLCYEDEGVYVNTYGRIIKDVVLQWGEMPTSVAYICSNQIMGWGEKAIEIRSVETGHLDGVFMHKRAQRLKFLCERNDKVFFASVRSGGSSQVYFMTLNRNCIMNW
Chain of PKCz (Q05513 whole entry): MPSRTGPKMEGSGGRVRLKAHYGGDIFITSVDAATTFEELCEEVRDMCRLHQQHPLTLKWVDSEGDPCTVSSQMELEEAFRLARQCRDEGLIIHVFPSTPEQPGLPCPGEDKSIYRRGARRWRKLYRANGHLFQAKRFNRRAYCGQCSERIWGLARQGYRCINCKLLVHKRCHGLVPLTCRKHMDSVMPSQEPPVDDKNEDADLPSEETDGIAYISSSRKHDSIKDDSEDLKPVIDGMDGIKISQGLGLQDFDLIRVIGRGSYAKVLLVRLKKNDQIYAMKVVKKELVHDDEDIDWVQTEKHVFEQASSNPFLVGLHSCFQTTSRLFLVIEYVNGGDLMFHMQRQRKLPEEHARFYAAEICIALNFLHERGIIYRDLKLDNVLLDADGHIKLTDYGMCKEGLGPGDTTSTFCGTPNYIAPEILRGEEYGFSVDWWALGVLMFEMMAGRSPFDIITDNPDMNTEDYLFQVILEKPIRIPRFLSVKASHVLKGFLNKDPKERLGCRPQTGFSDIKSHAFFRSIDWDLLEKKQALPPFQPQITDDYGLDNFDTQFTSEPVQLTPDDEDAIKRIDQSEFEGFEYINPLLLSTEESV
Chain of IGF-1R (P08069 31-1367): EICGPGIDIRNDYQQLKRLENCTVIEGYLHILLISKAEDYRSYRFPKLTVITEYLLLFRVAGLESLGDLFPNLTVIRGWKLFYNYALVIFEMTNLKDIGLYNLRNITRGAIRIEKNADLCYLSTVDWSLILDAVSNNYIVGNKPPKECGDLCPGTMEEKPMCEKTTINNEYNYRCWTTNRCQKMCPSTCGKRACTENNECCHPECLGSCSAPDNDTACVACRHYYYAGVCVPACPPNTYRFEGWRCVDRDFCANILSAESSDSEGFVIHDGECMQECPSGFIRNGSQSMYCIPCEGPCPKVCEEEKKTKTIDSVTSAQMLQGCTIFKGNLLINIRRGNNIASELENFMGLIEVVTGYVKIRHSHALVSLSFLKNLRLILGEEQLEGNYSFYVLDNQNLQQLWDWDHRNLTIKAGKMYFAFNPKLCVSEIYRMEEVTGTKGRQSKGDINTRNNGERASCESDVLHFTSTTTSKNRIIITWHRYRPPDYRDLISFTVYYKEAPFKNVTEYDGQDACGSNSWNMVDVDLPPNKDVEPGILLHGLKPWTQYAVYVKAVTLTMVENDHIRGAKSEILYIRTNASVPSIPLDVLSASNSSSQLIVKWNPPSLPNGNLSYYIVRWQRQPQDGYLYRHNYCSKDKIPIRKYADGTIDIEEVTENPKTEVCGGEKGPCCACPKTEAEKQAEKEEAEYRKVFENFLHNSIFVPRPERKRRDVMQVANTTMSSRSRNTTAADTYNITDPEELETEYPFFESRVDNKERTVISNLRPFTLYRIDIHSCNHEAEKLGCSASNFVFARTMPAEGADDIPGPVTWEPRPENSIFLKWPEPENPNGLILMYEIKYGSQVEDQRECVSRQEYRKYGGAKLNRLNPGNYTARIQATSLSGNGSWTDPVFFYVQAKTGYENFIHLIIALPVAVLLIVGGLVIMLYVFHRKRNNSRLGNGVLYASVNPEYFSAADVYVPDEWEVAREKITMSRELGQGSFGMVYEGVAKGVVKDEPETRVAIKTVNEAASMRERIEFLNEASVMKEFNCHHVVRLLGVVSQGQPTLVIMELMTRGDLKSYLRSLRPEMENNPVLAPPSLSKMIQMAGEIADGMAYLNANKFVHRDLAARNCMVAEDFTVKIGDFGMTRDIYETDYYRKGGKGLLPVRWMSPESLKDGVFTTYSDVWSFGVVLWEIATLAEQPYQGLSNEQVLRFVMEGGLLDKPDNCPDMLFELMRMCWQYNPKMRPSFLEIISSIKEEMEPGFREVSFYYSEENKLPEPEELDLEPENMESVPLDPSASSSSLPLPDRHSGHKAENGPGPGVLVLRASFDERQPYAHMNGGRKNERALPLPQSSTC

SMILES | activity remaining in the presence of the inhibitor: PAK2 (PAK2) | activity remaining in the presence of the inhibitor: IGF-1R (IGF-1R) | activity remaining in the presence of the inhibitor: MST4 (MST4) | activity remaining in the presence of the inhibitor: PRK2 (PRK2) | activity remaining in the presence of the inhibitor: PKCz (PKCz) | activity remaining in the presence of the inhibitor: CLK2 (CLK2) | activity remaining in the presence of the inhibitor: DDR2 (DDR2) | activity remaining in the presence of the inhibitor: MINK1 (MINK1) | activity remaining in the presence of the inhibitor: DAPK1 (DAPK1) | activity remaining in the presence of the inhibitor: CAMKKb (CAMKKb) | activity remaining in the presence of the inhibitor: MKK1 (MKK1) | activity remaining in the presence of the inhibitor: FGF-R1 (FGF-R1) | activity remaining in the presence of the inhibitor: JNK3 (JNK3) | activity remaining in the presence of the inhibitor: EPH-A4 (EPH-A4) | activity remaining in the presence of the inhibitor: YES1 (YES1) | activity remaining in the presence of the inhibitor: PKA (PKA) | activity remaining in the presence of the inhibitor: MARK1 (MARK1) | activity remaining in the presence of the inhibitor: Aurora A (Aurora A) | activity remaining in the presence of the inhibitor: IKKe (IKKe) | activity remaining in the presence of the inhibitor: TTK (TTK) | further results
C=CC(=O)Nc1cccc(CNc2nc(Nc3ccc(N4CCN(C)CC4)cc3OC)ncc2Cl)c1 [TL6-144] | 81 | 5 | 107 | 78 | 88 | 62 | 83 | 80 | 94 | 6 | 79 | 44 | 87 | 104 | 89 | 104 | 87 | 94 | 100 | 96 | activity remaining in the presence of the inhibitor: Src (Src): 74; activity remaining in the presence of the inhibitor: HIPK1 (HIPK1): 79; activity remaining in the presence of the inhibitor: ERK2 (ERK2): 106; activity remaining in the presence of the inhibitor: HIPK2 (HIPK2): 87; activity remaining in the presence of the inhibitor: MKK2 (MKK2): 93; activity remaining in the presence of the inhibitor: CAMK1 (CAMK1): 68; activity remaining in the presence of the inhibitor: ERK5 (ERK5): 87; activity remaining in the presence of the inhibitor: BRSK1 (BRSK1): 103; activity remaining in the presence of the inhibitor: SYK (SYK): 107; activity remaining in the presence of the inhibitor: TGFBR1 (TGFBR1): 83
C=CC(=O)Nc1cccc(CNc2nc(Nc3ccc(N4CCOCC4)cc3)ncc2Cl)c1 [TL8-52] | 75 | 24 | 96 | 52 | 98 | 29 | 76 | 80 | 100 | 22 | 84 | 49 | 69 | 99 | 47 | 74 | 44 | 13 | 34 | 49 | activity remaining in the presence of the inhibitor: Src (Src): 53; activity remaining in the presence of the inhibitor: HIPK1 (HIPK1): 96; activity remaining in the presence of the inhibitor: ERK2 (ERK2): 97; activity remaining in the presence of the inhibitor: HIPK2 (HIPK2): 97; activity remaining in the presence of the inhibitor: MKK2 (MKK2): 63; activity remaining in the presence of the inhibitor: CAMK1 (CAMK1): 97; activity remaining in the presence of the inhibitor: ERK5 (ERK5): 63; activity remaining in the presence of the inhibitor: BRSK1 (BRSK1): 86; activity remaining in the presence of the inhibitor: SYK (SYK): 63; activity remaining in the presence of the inhibitor: TGFBR1 (TGFBR1): 104

Reference: article PMC8115619, “Generation of a chemical genetic model for JAK3” (Scientific Reports, 2021)
